# Reference: patent US20240325544A1, “CATIONIC LIPID FOR COVALENT MODIFICATION OF PEPTIDES” (PharmalN Corporation, priority 2023, published 2024)
# Bridge positions count the residues as written; N and C are the ends. Square brackets hold non-standard residues; d marks the D form. Peptide text beside a SMILES is read from it. * marks the point of attachment. Palmitoyl = CCCCCCCCCCCCCCCC(=O)*; Dab = NCC[C@H](N)C(=O)O; Dap = NC[C@H](N)C(=O)O; AEEA = NCCOCCOCC(=O)O
# Tests used:
# [1] = Plasma concentration of respective natriuretic peptide by ELISA after SC bolus in CD-1 mice (pharmacokinetics, Table 3); conditions: male, CD-1, mouse, in vivo, sc, 1 mg/kg
# Procedure, shortened: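 Peptides given SC in sterile water; retro-orbital blood at 2 and 6 h post-dose (two bleeds per mouse), K2EDTA plasma. Plasma cGMP by commercial immunoassay kit; ANP, BNP or CNP plasma levels by peptide-specific ELISA.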
# [2] = tested on: E0771 breast cancer cells; test: Orthotopic mouse model of breast cancer using E0771 cells (FIG. 6); type: in vivo, mice; conditions: 0.3 mg/kg (0.1 μmol/kg) SC once daily, 5 days on, 2 days off, 3 cycles
# Experimental: Error bars represent standard error of the mean. FIG. 6A) Tumor growth kinetics of 6-week-old female C57BL/6J mice (n=10 per group) that were inoculated with E0771 breast cancer cells (250,000 cells/mouse) in the mammary gland. Starting from Day 4 post-inoculation, cationic alkyl modified CNP derivatives (SEQ ID NO: 29, 30, and 31) were administered subcutaneously at a bolus dose of 0.3 mg/kg (0.1 μmol/kg) once daily for 5 days (5 days on, 2 days off) for 3 cycles; dose days indicated by gridlines. The control group, which received only buffer, was dosed in the same manner to establish the baseline tumor growth kinetics. […] Therefore, it can be concluded that the attachment of CNP is important for the observed anti-tumor activity. Statistical analysis was based on Dunnett's test performed by using GraphPad (n=10, 10, 10, and 10; Control, SEQ ID NO: 29, SEQ ID NO: 30, and SEQ ID NO: 31) **** P<0.0001 vs Control group.
# Therefore, it can be concluded that the attachment of CNP is essential for anti-tumor activity. […] Animal care and treatment: Female C57BL/6J mice (6 weeks-old) were purchased from Kyudo (Saga, Japan) and maintained under a 12-hour light/12-hour dark cycle with free access to water and standard mouse diet (MF diet, Oriental Yeast Co., Ltd. Tokyo, Japan or PicoLab Rodent Diet 20, LabDiet Corp., St. Louis, Missouri). Implantation and drug administration: Mice were implanted with E0771 breast cancer cells (250,000 cells/mouse; Cosmo Bio Tokyo, Japan) in their left mammary gland and were randomized into groups of n=10. Starting from Day 4 post-inoculation, cationic alkyl modified CNP derivatives (SEQ ID NOs: 29, 30, and 31) were administered subcutaneously at a bolus dose of 0.3 mg/kg (0.1 μmol/kg; with a dose volume of 10 mL/kg) in sterile water for injection (Otsuka Pharmaceutical, Tokushima, Japan) once daily for 5 days (5 days on, 2 days off) for 3 cycles. The control group, which received only buffer, was dosed in the same manner to establish the baseline tumor growth kinetics. Tumor sizes were measured using calipers. Statistical analysis was based on Dunnett's test performed by using GraphPad (n=10, 10, 10, and 10; Control, SEQ ID NO: 29, SEQ ID NO: 30, and SEQ ID NO: 31) **** P<0.0001 vs Control group.
# [3] = tested on: C57BL/6J mice; test: Survival in LPS induced ALI model (FIG. 2B); type: in vivo; conditions: LPS 20 mg/kg IT; 0.3 mg/kg (0.1 μmol/kg) IT every 24 hours, 3 doses, survival to 72 hours
# Experimental: FIGS. 2A-2B: Single and repeat administration of cationic alkyl modified C-type Natriuretic Peptides increases probability of survival in LPS induced Sepsis and ALI animal models. FIG. 2A) Sepsis induction: Male C57BL/6J mice (n=10 per group; 3 groups) were injected IP with LPS (15 mg/kg) and treated with various test articles, including cationic alkyl modified CNPs (SEQ ID NO: 31 and 29; 0.3 mg/kg (0.1 μmol/kg) SC). The control group received LPS treatment without any test article. The test articles were administered immediately after LPS administration (marked with vertical dotted lines). Survival was monitored every 2 hours from 8-56 hours, after which the surviving mice were euthanized under isoflurane anesthesia. […] Survival was monitored every 8 hours for 72 hours, after which the surviving mice were euthanized under isoflurane anesthesia. […]
# Animal care and treatment: Male C57BL/6J mice (6 weeks-old) were purchased from Kyudo (Saga, Japan) and maintained under a 12-hour light/12-hour dark cycle with free access to water and standard mouse diet (MF diet, Oriental Yeast Co., Ltd. Tokyo, Japan). […] Survival was monitored every 2 hours from 8-56 hours, after which the mice were euthanized under isoflurane anesthesia. […] Survival was monitored every 8 hours for 72 hours, after which the mice were euthanized under isoflurane anesthesia. […]
Compound,level at 2 h [1] [ng/mL],level at 6 h [1] [ng/mL],Tumor volume compared to the Control group [2],Survival [3]
CCCCCCCCCCCCCCCC(=O)NCCOCCOCC(=O)NCCOCCOCC(=O)NCCOCCOCC(=O)N[C@@H](CN)C(=O)N[C@@H](CN)C(=O)NCC(=O)N[C@@H](CC(C)C)C(=O)N[C@@H](CO)C(=O)N[C@@H](CCCCN)C(=O)NCC(=O)N[C@H]1CSSC[C@@H](C(=O)O)NC(=O)CNC(=O)[C@H](CC(C)C)NC(=O)CNC(=O)[C@H](CO)NC(=O)[C@H](CCC(N)=O)NC(=O)[C@H](CO)NC(=O)CNC(=O)[C@H]([C@@H](C)CC)NC(=O)[C@H](CCCNC(=N)N)NC(=O)[C@H](CC(=O)O)NC(=O)[C@H](CC(C)C)NC(=O)[C@H](CCCCN)NC(=O)[C@H](CC(C)C)NC(=O)CNC(=O)[C@H](Cc2ccccc2)NC1=O [SEQ ID NO: 31] ({Palmitoyl-AEEA-AEEA-AEEA}-[Dap][Dap]GLSKGCFGLKLDRIGSQSGLGC-OH; disulfide 8-24; C-terminus assumed),76.8,14.8,significant decrease in tumor volume,effective in improving survival
CCCCCCCCCCCCCCCC(=O)NCCOCCOCC(=O)NCCOCCOCC(=O)NCCOCCOCC(=O)N[C@@H](CCN)C(=O)N[C@@H](CCN)C(=O)NCC(=O)N[C@@H](CC(C)C)C(=O)N[C@@H](CO)C(=O)N[C@@H](CCCCN)C(=O)NCC(=O)N[C@H]1CSSC[C@@H](C(=O)O)NC(=O)CNC(=O)[C@H](CC(C)C)NC(=O)CNC(=O)[C@H](CO)NC(=O)[C@H](CCC(N)=O)NC(=O)[C@H](CO)NC(=O)CNC(=O)[C@H]([C@@H](C)CC)NC(=O)[C@H](CCCNC(=N)N)NC(=O)[C@H](CC(=O)O)NC(=O)[C@H](CC(C)C)NC(=O)[C@H](CCCCN)NC(=O)[C@H](CC(C)C)NC(=O)CNC(=O)[C@H](Cc2ccccc2)NC1=O [SEQ ID NO: 29] ({Palmitoyl-AEEA-AEEA-AEEA}-[Dab][Dab]GLSKGCFGLKLDRIGSQSGLGC-OH; disulfide 8-24; C-terminus assumed),18,8.93,significant decrease in tumor volume,effective in improving survival
